Results taken from patent US4018801A, “Substituted oxirane compounds” (The Dow Chemical Company, priority 1975, dated 1977).

Tests used:
Type in all cases: in vivo
Crabgrass = experiment: Pre-emergent control of seed germination, soil drench; details: for % Control: pre-emergence, Crab Grass; for pre-emergence control: crabgrass
Source text: (§1) Four parts by weight of the compound, 0.08 part of sorbitan trioleate (Span 85), and 0.02 part of a sorbitan monooleate polyoxyethylene derivative (Tween 80) are dipersed in 40 milliliters of acetone to produce a concentrate composition in the form of a water-dispersible liquid containing the predetermined oxirane compound as the sole active agent.
(§2) A portion of each of these concentrate compositions were separately dispersed in portions of water to provide aqueous compositions, containing 0.44 pound of the oxirane compound per 100 gallons of ultimate aqueous mixture.
(§3) The aqueous compositions were then employed for the treatment of seed beds of good agricultural soil which had been prepared and seeded with the seeds of various grass species and broadleaf plants. The grass species included white winter wheat, cultured rice, pigweeds, crabgrass, cheat grass, wild oats, Johnson grass, barnyard grass and yellow foxtail; and the broadleaf plants included corn. In the treating operations, a predetermined quantity of each of the compositions was applied to separate seedbeds as a soil drench at a rate of about 0.43 acre inch of aqueous composition per acre. The quantities were controlled to supply a substantial uniform dosage in a seedbed equivalent to 1.0, 2.0 and 5.0 pounds of the oxirane compound per acre. These dosages correspond, respectively, to a concentration, within the soil depth penetrated of about 1.6, 3.2 and 8.0 parts by weight of the oxirane compound per million parts by weight of soil. Other seedbeds were similarly seeded with the named plant species but were left untreated to serve as checks.
(§4) After about 2 weeks the seedbeds were examined to ascertain what control of the growth of seeds had been obtained.
(§5) were prepared as in Example 32 and similarly employed for the pre-emergencetreatment of various plant species.
(§6) Separate aqueous compositions containing the 2-(m-chlorophenyl)-2-(2,2,2-trichloroethyl)oxirane (Cmpd. A) and 2-(m-bromophenyl)-2-(2,2,2-trichloroethyl)oxirane (Cmpd. C) compounds of the present invention were prepared as in Example 32 for comparative per-emergence herbicide tests against noxious grass species with the known 2 -(p-chlorophenyl)-2-(2,2,2-trichloroethyl)oxirane (Cmpd. B) compound and 2-(p-bromophenyl)-2-(2,2,2-trichloroethyl)oxirane (Cmpd. D). The pre-emergence tests were conducted in Example 32 and the results of such tests are set forth below in Table III.
(§7) An aqueous composition containing 2-(α,α,α -trifluoro-m-tolyl)-2-(2,2,2-trichloroethyl)oxirane was prepared as described in Example 32. The composition was then employed according to the procedures of Example 32 except that lower concentrations of the oxirane compound were employed in the composition.
(§8) The percent control of the various plant species at the employed dosage rate of the 2-(α,α,α-trifluoro-m-tolyl)- 2-(2,2,2-trichloroethyl) supplied by the composition is set forth in the following Table IV.

Johnson Grass = experiment: as above; details: for % Control: pre-emergence, Johnson Grass; for pre-emergence control: Johnson grass
Source text: as §1, §2, §3, §4, §5, §6, §7, §8

Water-Grass = experiment: Comparative pre-emergence herbicide test
Source text: as §1, §2, §3, §4, §6

Pigweeds = experiment: Pre-emergent control of seed germination, soil drench; details: pigweeds, 2.0 pounds per acre
Source text: as §1, §2, §3, §4, §5, §7, §8

Wild Oats = experiment: as above; details: wild oats
Source text: as §1, §2, §3, §4, §5, §7, §8

Barnyard Grass = experiment: as above; details: barnyard grass
Source text: as §1, §2, §3, §4, §5, §7, §8

Yellow Foxtail = experiment: as above; details: yellow foxtail
Source text: as §1, §2, §3, §4, §5, §7, §8

[1] = 0.25 to 0.5 pounds per acre, respectively

Row | SMILES | % Control (Crabgrass; 1/8 Lb/Acre) | % Control (Crabgrass; 1/16 Lb/Acre) | % Control (Johnson Grass; 1/8 Lb/Acre) | % Control (Johnson Grass; 1/16 Lb/Acre) | % Control (Water-Grass; 1/8 Lb/Acre) | % Control (Water-Grass; 1/16 Lb/Acre) | pre-emergence control (Pigweeds) | pre-emergence control (Wild Oats; 2.0 pounds per acre) | pre-emergence control (Crabgrass; 2.0 pounds per acre) | pre-emergence control (Johnson Grass; 2.0 pounds per acre) | pre-emergence control (Barnyard Grass; 2.0 pounds per acre) | also measured
1 | Clc1ccc(C2(CC(Cl)(Cl)Cl)CO2)cc1 (stereo not shown) [Cmpd. B, 2-(p-chlorophenyl)-2-(2,2,2-trichloroethyl)oxirane, reference compound] | 20% | 0% | 30% | 0% | 90% | 60% | – | – | – | – | – | –
2 | ClC(Cl)(Cl)CC1(c2ccc(Br)cc2)CO1 (stereo not shown) [Cmpd. D, 2-(p-bromophenyl)-2-(2,2,2-trichloroethyl)oxirane, reference compound] | 0% | 0% | 25% | 0% | 60% | 30% | – | – | – | – | – | –
3 | Clc1ccc(C2(CC(Cl)(Cl)Cl)CO2)cc1Cl (stereo not shown) [Example 5, 2-(3,4-dichlorophenyl)-2-(2,2,2-trichloroethyl)oxirane] | – | – | – | – | – | – | substantially complete control | substantially complete control | substantially complete control | substantially complete control | – | –
4 | Clc1cccc(C2(CC(Cl)(Cl)Cl)CO2)c1 (stereo not shown) [Example 7, 2-(m-chlorophenyl)-2-(2,2,2-trichloroethyl)oxirane] | 100% | 100% | 100% | 100% | 90% | 85% | – | – | – | – | – | pre-emergence control (Barnyard Grass; [1]): Substantially complete pre-emergence control; pre-emergence control (Wild Oats; [1]): Substantially complete pre-emergence control; pre-emergence control (Yellow Foxtail; [1]): Substantially complete pre-emergence control; pre-emergence control (Crabgrass; [1]): Substantially complete pre-emergence control; pre-emergence control (Johnson Grass; [1]): Substantially complete pre-emergence control
5 | Cc1cccc(C2(CC(Cl)(Cl)Cl)CO2)c1 (stereo not shown) [Example 9, 2-(m-tolyl)-2-(2,2,2-trichloroethyl)oxirane] | – | – | – | – | – | – | substantially complete control | substantially complete control | substantially complete control | substantially complete control | substantially complete control | pre-emergence control (Yellow Foxtail; 2.0 pounds per acre): substantially complete control
6 | COc1cccc(C2(CC(Cl)(Cl)Cl)CO2)c1 (stereo not shown) [Example 12, 2-(m-methoxyphenyl)-2-(2,2,2-trichloroethyl)oxirane] | – | – | – | – | – | – | substantially complete pre-emergence control | – | substantially complete pre-emergence control | substantially complete pre-emergence control | substantially complete pre-emergence control | –
7 | CCOc1cccc(C2(CC(Cl)(Cl)Cl)CO2)c1 (stereo not shown) [Example 14, 2-(m-ethoxyphenyl)-2-(2,2,2-trichloroethyl)oxirane] | – | – | – | – | – | – | – | substantially complete control | substantially complete control | substantially complete control | substantially complete control | –
8 | Fc1cccc(C2(CC(Cl)(Cl)Cl)CO2)c1 (stereo not shown) [Example 19, 2-(m-fluorophenyl)-2-(2,2,2-trichloroethyl)oxirane] | – | – | – | – | – | – | – | – | – | – | – | pre-emergence control (Barnyard Grass; [1]): Substantially complete pre-emergence control; pre-emergence control (Wild Oats; [1]): Substantially complete pre-emergence control; pre-emergence control (Yellow Foxtail; [1]): Substantially complete pre-emergence control; pre-emergence control (Crabgrass; [1]): Substantially complete pre-emergence control; pre-emergence control (Johnson Grass; [1]): Substantially complete pre-emergence control
